Reference: patent US20160303127A1, “COMBINATION THERAPY WITH C-MET AND EGFR ANTAGONISTS” (Genentech, Inc., priority 2008, published 2016)

Columns and labels:
EBC-1 shMet-4.5 tumors = assay: Combination efficacy of erlotinib with c-met knockdown (Dox) in the EBC-1 shMet-4.5 NSCLC xenograft model; assay type: in vivo, nude mice (nu/nu); details: EBC-1 shMet-4.5 xenograft
Procedure: Test material. Erlotinib (Tarceva™) was provided by OSI Pharmaceuticals to the Formulations Department at Genentech and was weighed out along with a sufficient amount of vehicle (methylcellulose tween (MCT)). Materials were stored in a refrigerator set to maintain a temperature range of 4° C. to 8° C. Anti-c-met monovalent monoclonal antibody MetMAb (rhuOA5D5v2) (WO2007/063816) was provided by the Antibody Engineering Department at Genentech, Inc., in a clear liquid form. The EBC-1 cell line was obtained from Japanese Collection of Research Bioresources (JCRB). Species. Forty nude mice (nu/nu) were obtained from Charles River Laboratories (CRL) and were acclimatized for at least one week prior to being put on study. Animals were housed in ventilated caging systems in rooms with filters supplying High-Efficiency Particulate Air (HEPA). Only animals that appeared to be healthy and were free of obvious abnormalities were used for the study. Study design. EBC-1 cells were cultured in growth media that consisted of RPMI 1640 media (Invitrogen), 2 mM L-glutamine, and 10% fetal bovine serum. To prepare cells for inoculation into mice, cells were trypsinized, washed with ten milliliters of sterile 1× phosphate buffered saline (PBS). A subset of cells was counted by trypan blue exclusion and the remainder of cells was resuspended in 100 μl of sterile 1× PBS to a concentration of 5×10^7 cells per milliliter. Mice were inoculated subcutaneously in the right sub-scapular region with 5×10^6 EBC-1 cells. […] Mice in Group 1 (control group) were treated with 100 μL vehicle control, methylcellulose tween (MCT), every day (QD) via oral gavage (PO) and were switched to drinking water containing 5% sucrose. […] Dox and sucrose water was changed every 2-3 days. Erlotinib and MCT were dosed for 14 days, stopped for 6 days and then resumed for the remainder of the study (20 days). […] All studies and handling of mice complied with the Institutional Animal Care and Use Committee (IACUC) guidelines. [table] Tumor and Body Weight Measurement. […] Fowler Company, Inc.; Newton, Mass.). The following formula was used with Excel v11.2 (Microsoft Corporation; Redmond, Wash.) to calculate tumor volume: […] Efficacy Data Analysis. Tumor inhibition was plotted using KaleidaGraph 3.6 (Synergy Software; Reading, Pa.). Percent growth inhibition (% Inh) at Day 17 was calculated as follows: […] Tumor incidence (TI) was determined by the number of measurable tumors in each group at Day 17. […] Mean tumor volume and standard error of the mean (SEM) were calculated using JMP software, version 5.1.2 (SAS Institute; Cary, N.C.). Data analysis and generation of p-values using either Student's t-test or the Dunnett's t-test was also done using JMP software, version 5.1.2. […] Mice were then grouped into four treatment arms; […] Vehicles, Group 2: Doxycycline (Dox), Group 3: erlotinib (100 mg/kg), and Group 4: erlotinib+Dox (See Table 6).

[1] = biological target: c-met (as expressed in NCI-H596 cells) (human) (UniProt P08581); assay: cell-based or functional assay
[2] = 10 mice per group, any day during the study

pMet/total Met in NCI-H596 xenograft tumors, percent of vehicle control (immunoprecipitation and immunoblot, Li-Cor quantification) (% of vehicle control) [1] | Compound | number of complete responses (CR; tumor regression of 100%) (EBC-1 shMet-4.5 tumors; [2]) | number of partial responses (PR; tumor regression >50% but <100% of starting tumor volume) (EBC-1 shMet-4.5 tumors; [2]) | reduction in tumor growth compared to the vehicle control (tumor inhibition) (EBC-1 shMet-4.5 tumors; nude mice, day 19, erlotinib 100 mg/kg PO QD, Dox in drinking water) [%]
 | C[C@H]1c2cccc(O)c2C(=O)C2=C(O)[C@]3(O)C(=O)C(C(N)=O)=C(O)[C@@H](N(C)C)[C@@H]3[C@@H](O)[C@@H]21 [Dox, doxycycline] | 1 | 2 | 38
12 | Anti-c-met monovalent monoclonal antibody MetMAb (rhuOA5D5v2) |  |  | 
